Data as given in article PMC5599305 (The pharmacogenomics journal, 2017).

Legend:
Type in all cases: cell-based
[1] = molecular target: T1, human α4β2 nicotinic receptor, 3:2 (α4:β2) stoichiometry; (α4)3(β2)2 (Homo sapiens, UniProt P17787+P43681); experiment: two-electrode voltage clamp, Xenopus oocytes; settings: agonist
[2] = molecular target: T1, human α4β2 nicotinic receptor, 3:2 (α4:β2) stoichiometry; (α4)3(β2)2; experiment: two-electrode voltage clamp, Xenopus oocytes, direct activation; settings: 200 μM compound alone; weak agonism
[3] = molecular target: human α4β2 nicotinic receptor, 2:3 stoichiometry; (α4)2(β2)3 (Homo sapiens, UniProt P17787+P43681); experiment: as above; settings: 200 μM compound alone; weak agonism
Chain of human α4β2 nicotinic receptor, 2:3 stoichiometry; (α4)2(β2)3 (P43681 27-627): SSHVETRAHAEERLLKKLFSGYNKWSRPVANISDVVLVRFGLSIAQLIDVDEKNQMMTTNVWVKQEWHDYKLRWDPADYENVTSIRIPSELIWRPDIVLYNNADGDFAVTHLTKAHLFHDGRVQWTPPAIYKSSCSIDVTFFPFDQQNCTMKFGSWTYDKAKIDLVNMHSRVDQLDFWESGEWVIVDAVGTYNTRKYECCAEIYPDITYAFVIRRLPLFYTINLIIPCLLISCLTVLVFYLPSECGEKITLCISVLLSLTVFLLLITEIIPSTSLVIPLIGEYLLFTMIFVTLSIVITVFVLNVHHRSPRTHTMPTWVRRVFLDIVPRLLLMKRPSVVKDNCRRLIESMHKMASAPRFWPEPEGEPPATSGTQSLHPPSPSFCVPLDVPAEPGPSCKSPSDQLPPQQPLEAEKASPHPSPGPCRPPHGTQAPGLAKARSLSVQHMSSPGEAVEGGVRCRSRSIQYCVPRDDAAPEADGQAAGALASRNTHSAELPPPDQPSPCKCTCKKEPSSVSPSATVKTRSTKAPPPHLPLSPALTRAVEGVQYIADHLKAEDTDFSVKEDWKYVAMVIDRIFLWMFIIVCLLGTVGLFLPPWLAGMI
Chain of human α4β2 nicotinic receptor, 2:3 stoichiometry; (α4)2(β2)3 (P17787 26-502): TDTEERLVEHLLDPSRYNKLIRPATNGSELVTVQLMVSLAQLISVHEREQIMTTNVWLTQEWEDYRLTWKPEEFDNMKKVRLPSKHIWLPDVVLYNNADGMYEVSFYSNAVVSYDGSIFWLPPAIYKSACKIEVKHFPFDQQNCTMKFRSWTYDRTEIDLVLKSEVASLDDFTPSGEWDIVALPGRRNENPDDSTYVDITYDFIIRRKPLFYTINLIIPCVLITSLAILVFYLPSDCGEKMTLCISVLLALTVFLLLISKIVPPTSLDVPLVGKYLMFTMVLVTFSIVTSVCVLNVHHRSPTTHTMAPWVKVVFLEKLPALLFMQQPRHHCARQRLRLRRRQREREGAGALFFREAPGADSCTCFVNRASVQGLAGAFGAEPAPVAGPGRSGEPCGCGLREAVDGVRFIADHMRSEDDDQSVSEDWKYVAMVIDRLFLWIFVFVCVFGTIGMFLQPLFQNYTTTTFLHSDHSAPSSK

T1 sequence (P43681 27-627): as the sequence (P43681 27-627) above
T1 sequence (P17787 26-502): as the sequence (P17787 26-502) above

| Structure (SMILES) | EC3 [1] | relative peak response, % of 1 mM ACh response, at 200 μM [2] | relative peak response, % of saturating ACh response, at 200 μM [3] |
| --- | --- | --- | --- |
| CC(=O)OCC[N+](C)(C)C [acetylcholine] | ~ 1 μM | – | – |
| C[N@@+]1([O-])CCC[C@H]1c1cccnc1 [trans-nicotine-N-oxide] | – | 1.7 ± 0.3% | 5.7 ± 1.1% |
